Experiments:
human melanocytes [1] = assay: Melanocyte bioassay: cell number / proliferation of cultured human melanocytes; format: cell-based
Method: (§1) Melanocytes were seeded at 2 x 10⁴ cells per 35 mm dish and combined with KPGM supplemented with 2% FBS and 100 ug/ml of BHE, now designated as complete melanocyte medium. After 24 hours incubation at 37 C, the grown melanocyte cultures, in duplicate or triplicate, received one of the following: free complete melanocyte medium; or supplemented whole KDCM. Each melanocyte culture was then incubated for 6-7 days at 37 C. Subsequently, each melanocyte culture was harvested and the cell number per dish empirically determined. Each melanocyte culture was washed with a 0.4 mM EDTA in PBS; treated with 1 ml of a mixture containing 0.13% trypsin and 0.2 mM EDTA; then incubated approximately 10 minutes at 37 C; followed by addition of 1 ml of PBS. Subsequently, a 0.5 ml aliquot of each resulting suspension was diluted to 10 ml total volume using isotonic saline and processed using a particle counter (Model ZM, Colter Science).
(§2) A first experimental series was performed which utilized human melanocytes combined with the preferred DAG, 1-oleoyl-2-acetyl-glycerol, selected for its efficiency of intercalating into melanocyte membranes. Neonatal foreskins obtained within two hours of elective circumcision were the source of human melanocytes. The epidermis was separated from the dermis after overnight incubation in 0.25% trypsin. Melanocytes were established in primary culture according to the procedure of Gilchrest et al. [J. Invest. Dermatol. 83:370-376 (1984)]. The preferred DAG was combined with human melanocytes in complete melanocyte medium and incubated together for a period of 6 days at 37°C.
(§3) A second experimental series was conducted in which the cultured human melanocytes were first pretreated with tetradecanoyl phorbol-13-acetate (hereinafter "TPA") at a concentration of 100 nM. Initially, the human melanocytes were obtained and grown as previously described. Subsequently, the cultured human melanocytes were combined with 100 nM of TPA in melanocyte medium and incubated at 37°C for 24 hours. The DAG was then added and the culture incubated again for 6 days. The melanin content of the cells was then evaluated in accordance with the procedure as previously described herein.

S91 melanoma cells [2] = assay: Melanin content of S91 melanoma cells in culture; format: cell-based, murine; details: DMEM with 2% FBS, 37°C, 7 days
Method: To determine melanin content, the remaining suspension was centrifuged for 5 minutes in a microcentrifuge; the supernatant discarded; and the resulting cell pellet dissolved in 0.1 ml of a 1 M NaOH which was subsequently diluted with 0.4 ml of water. Melanin concentration was calculated by determination of optical density at 475 nanometers; and values extrapolated by comparison with a standard curve of determinations for synthetic melanin, a measurement of melanogenesis which correlates extremely well with ¹⁴C-DOPA incorporation and with tyrosinase activity [Friedmann and Gilchrest, J. Cell. Physiol. 133:88-94 (1987)]. Melanin values were expressed as total melanin per culture; or as melanin content per cell; or as percent of untreated controls.
This experimental series was performed to evaluate the effect of a DAG on melanocytes derived from animal sources, rather than humans. In this experimental series, murine S91 melanoma cells were grown and maintained in culture using conventional techniques [Friedmann and Gilchrest, J. Cell. Physiol. 133:88-94 (1987)]. The grown S91 melanoma cells were then combined with 100 »M of the preferred DAG, 1-oleoyl-2-acetyl-glycerol; or with 100 »M of 3-isobutyl-1-methylxanthine (IBMX). Each chemical agent was combined with the S91 melanoma cells in Dulbecco's […] Eagle's Medium containing 2% FBS at 37°C for 7 days. […]

S91 melanoma cells [3] = assay: Proliferation of S91 melanoma cells in culture; format: cell-based, murine; details: DMEM with 2% FBS, 37°C, 7 days
Method: as §1
This experimental series was performed to evaluate the effect of a DAG on melanocytes derived from animal sources, rather than humans. In this experimental series, murine S91 melanoma cells were grown and maintained in culture using conventional techniques [Friedmann and Gilchrest, J. Cell. Physiol. 133:88-94 (1987)]. […]

human melanocytes [4] = assay: Dendricity (morphology) of cultured human melanocytes; format: cell-based
Method: In certain instances, phase contrast micrographs were taken using an inverted microscope after the cultures were washed once with phosphate buffered saline.
as §2, §3

human melanocytes [5] = assay: Melanocyte bioassay: melanin content of cultured human melanocytes; format: cell-based; details: for melanization / melanin content per human melanocyte (Fig. 3): DAG added after pretreatment with 100 nM TPA for 24 hours, then 6 days
Method: Melanocytes were seeded at 2 x 10^4 cells per 35 mm dish and combined with KPGM supplemented with 2% FBS and 100 ug/ml of BHE, now designated as complete melanocyte medium. After 24 hours incubation at 37 C, the grown melanocyte cultures, in duplicate or triplicate, received one of the following: free complete melanocyte medium; or supplemented whole KDCM. Each melanocyte culture was then incubated for 6-7 days at 37 C. Subsequently, each melanocyte culture was harvested and the cell number per dish empirically determined. Each melanocyte culture was washed with a 0.4 mM EDTA in PBS; treated with 1 ml of a mixture containing 0.13% trypsin and 0.2 mM EDTA; then incubated approximately 10 minutes at 37 C; followed by addition of 1 ml of PBS. Subsequently, a 0.5 ml aliquot of each resulting suspension was diluted to 10 ml total volume using isotonic saline and processed using a particle counter (Model ZM, Colter Science). To determine melanin content, the remaining suspension was centrifuged for 5 minutes in a microcentrifuge; the supernatant discarded; and the resulting cell pellet dissolved in 0.1 ml of a 1 M NaOH which was subsequently diluted with 0.4 ml of water. Melanin concentration was calculated by determination of optical density at 475 nanometers; and values extrapolated by comparison with a standard curve of determinations for synthetic melanin, a measurement of melanogenesis which correlates extremely well with 14C-DOPA incorporation and with tyrosinase activity [[…] and […]. Cell. Physiol. 133:88-94 (1987)]. Melanin values were expressed as total melanin per culture; or as melanin content per cell; or as percent of untreated controls. […] Neonatal foreskins obtained within two hours of elective circumcision were the source of human melanocytes. The epidermis was separated from the dermis after overnight incubation in 0.25% trypsin. Melanocytes were established in primary culture according to the procedure of […] et al. [J. Invest. Dermatol. 83:370-376 (1984)]. The preferred DAG was combined with human melanocytes in complete melanocyte medium and incubated together for a period of 6 days at 37°C. […] At an optimal concentration of 100 »M, this DAG produced an average of a 4 fold increase in cellular melanin content per cell over the untreated control. […] Initially, the human melanocytes were obtained and grown as previously described. Subsequently, the cultured human melanocytes were combined with 100 nM of TPA in melanocyte medium and incubated at 37°C for 24 hours. The DAG was then added and the culture incubated again for 6 days. The melanin content of the cells was then evaluated in accordance with the procedure as previously described herein. The results are graphically illustrated by Figs. 2 and 3 respectively.

[6] = DAG added after pretreatment with 100 nM TPA for 24 hours, then 6 days
[7] = agent alone (DAG 6 days; TPA 100 nM pretreatment)

| Compound | melanocyte proliferation or growth (Figs. 1a and 1b) (human melanocytes [1]; 25 - 200 »M, 6 days at 37°C) | human melanocyte proliferation (Fig. 2) (human melanocytes [1]; [6]) | human melanocyte proliferation (Fig. 2) (human melanocytes [1]; [7]) | melanin production in S91 melanoma cells in comparison to controls (Fig. 5) (S91 melanoma cells [2]; DAG) | proliferation of S91 melanoma cells (Fig. 4) (S91 melanoma cells [3]; concentrations ranging from 1-200 uM) | induction of dendricity (human melanocytes [4]; [6]) | dendricity of human melanocytes (human melanocytes [4]; DAG alone, 6 days at 37°C) | melanization / melanin content per human melanocyte (Fig. 3) (human melanocytes [5]; listed as DAG) | melanization / melanin content per human melanocyte (Fig. 3) (human melanocytes [5]; listed as diacylglycerol) | fold induction at 100 µM (human melanocytes [5]; Homo sapiens, 144 h, optimal concentration of 100 »M, 6 days at 37°C in complete melanocyte medium, read-out: increase in cellular melanin content per cell over the untreated control) | melanin content (Figs. 1a and 1b) (human melanocytes [5]; concentration levels 25 - 200 »M, 6 days at 37°C) | melanization (human melanocytes [5]; diacylglycerol alone, second experimental series, 6 days) | melanin production in S91 melanoma cells (Fig. 5) (S91 melanoma cells [2]; 100 »M) | proliferation / cellular growth of S91 melanoma cells (Fig. 4) (S91 melanoma cells [3]; 100 »M) | dendricity (human melanocytes [4]; TPA alone, 100 nM) |
| --- | --- | --- | --- | --- | --- | --- | --- | --- | --- | --- | --- | --- | --- | --- | --- |
| CCCCCCCC/C=C\CCCCCCCC(=O)OCC(CO)OC(C)=O (stereo not shown) [1-oleoyl-2-acetyl-glycerol] | no meaningful effects on melanocyte proliferation or growth | neither the DAG analogue, nor the pretreatment with TPA, nor their combination has any substantial effect | neither the DAG analogue, nor the pretreatment with TPA, nor their combination has any substantial effect | consistently failed to induce any substantial increases in melanin production | effectively failed to induce proliferation | equally effective at melanization and the induction of dendricity | did not increase the dendricity | major and significant increases in melanin content per human melanocyte as a function of TPA pretreatment in amounts meaningfully greater than that of the chosen DAG analogue alone | equally effective at melanization | 4 | clear dose dependent response to increased melanin content | induced increased melanization | – | – | – |
| CC(C)Cn1c(=O)n(C)c(=O)c2[nH]cnc21 [IBMX, 3-isobutyl-1-methylxanthine, reference compound] | – | – | – | – | – | – | – | – | – | – | – | – | caused a major increase in melanin production | failed to produce any cellular growth | – |
| tetradecanoyl phorbol-13-acetate [TPA, reference compound] | – | – | neither the DAG analogue, nor the pretreatment with TPA, nor their combination has any substantial effect | – | – | – | – | – | – | – | – | – | – | – | induced extreme dendricity |
